Reference: patent US8293774B2, “Optically active (R)-aryloxypropionic acid amides and herbicidal composition comprising same” (Kyung Nong Corporation, priority 2007, dated 2012)

Experiments:
Barnyard grass = test: Weed control test, 4-leaf stage plants (Test Example 1, Table 8); type: in vivo, Echinoch crus-galli Beauv. var. caudata Kitagawa
From the text: Seeds of rice, wheat, soy bean, barley, corn, common sorgum, barnyard grass, large crabgrass, creek grass, green foxtail and fall panicum were placed in sandy loam in 600 cm^2 pots and covered with soil. […], 2,000 l/ha of an emulsion obtained by diluting with water a mixture of 1 part by weight of a test compound, 5 parts by weight of acetone and 1 part by weight of an emulsifying agent (Tween 80, Junsei) was applied to the surface of the foliage of the plants. The plant damage at 10 days and 20 days after the foliage treatment was visually evaluated from the level of 1 to 100% by comparison with the untreated control: […]

Echinochloa oryzicola = test: Foliage treatment with emulsions, dry rice field conditions (Test Example 2, Table 9); type: in vivo; conditions: 150 g a.i./ha; emulsion of Formulation Example 3; division stage 1~2; 20 days after foliage treatment
From the text: (§1) Seeds of rice (Nampyung rice) and barnyard grasses (Echinochloa oryzicola and Echinochloa crus-galli var. crus-galli) were placed in sandy loam of pots, covered with soil, and grown in the dry rice field conditions.
(§2) Rice (6˜6.5-leaf stage, plant height 33.2 cm) and barnyard grasses (Echinochloa oryzicola: division stage 1˜2, plant height 38.0 cm, Echinochloa crus-galli var. crus-galli: division stage 1˜2, plant height 44.1 cm) were subjected to a foliage treatment with emulsions prepared according to Formulation Example 3 by using compounds of Examples 1, 5 and 13 (purity: 99% or more), wherein the emulsions were sprayed to the plants at a dosage of the active compound of 150 g/ha.
(§3) The herbicidal effect on the barnyard grasses and harmful effect on the rice of the test compounds at 20 days and 30 days after the foliage treatment were visually evaluated as in Test Example 1 in comparison with the untreated control, and the results are shown in Table 9.

[1] = system: Echinochloa crus-galli var. crus-galli; test: as above; type: in vivo; conditions: 150 g a.i./ha; emulsion of Formulation Example 3; division stage 1~2; 20 days after foliage treatment
From the text: as §1, §2, §3

[2] = system: ECHOG (Echinoch crus-galli Beauv. var. caudata Kitagawa, barnyard grass); test: Weed control test, foliage treatment (Test Example 1, Table 7); type: in vivo; conditions: Echinochloa crus-galli, foliar, 3-leaf stage, read-out: Plant damage (herbicidal activity), visually evaluated, ECHOG; for pest or weed control at 25 g/ha: 0.025 kg/ha; for pest or weed control at 100 g/ha: 0.1 kg/ha; for pest or weed control at 200 g/ha: 0.2 kg/ha
Method in brief: (§4)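 Post-emergence foliar spray, 2,000 l/ha aqueous emulsion (compound:acetone:emulsifier 1:5:1 w/w), applied once barnyard grass reached 3-leaf stage; greenhouse 20 to 30° C, sandy loam. Visual injury 1 to 100% vs untreated, 10 and 20 d post-treatment.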

[3] = system: SETVIR (Setaria viridis (L.) Beauv, green foxtail); test: as above; type: in vivo; conditions: Setaria viridis, foliar, read-out: Plant damage (herbicidal activity), visually evaluated, SETVIR; for pest or weed control at 25 g/ha: 0.025 kg/ha; for pest or weed control at 100 g/ha: 0.1 kg/ha; for pest or weed control at 200 g/ha: 0.2 kg/ha
Method in brief: as §4

[4] = system: DIGSA (Digitaria Sanguinalis (L.) SCOP, large crabgrass); test: as above; type: in vivo; conditions: Digitaria sanguinalis, foliar, read-out: Plant damage (herbicidal activity), visually evaluated, DIGSA; for pest or weed control at 25 g/ha: 0.025 kg/ha; for pest or weed control at 100 g/ha: 0.1 kg/ha; for pest or weed control at 200 g/ha: 0.2 kg/ha
Method in brief: as §4

[5] = system: PANDI (Panium dichotomiflorum Michx, fall panicum); test: as above; type: in vivo; conditions: Panicum dichotomiflorum, foliar, read-out: Plant damage (herbicidal activity), visually evaluated, PANDI; for pest or weed control at 25 g/ha: 0.025 kg/ha; for pest or weed control at 100 g/ha: 0.1 kg/ha; for pest or weed control at 200 g/ha: 0.2 kg/ha
Method in brief: as §4

[6] = system: ARTHIS (Arthraxon hispidus (Thunb.) Makino, creek grass); test: as above; type: in vivo; conditions: Arthraxon hispidus, foliar, read-out: Plant damage (herbicidal activity), visually evaluated, ARTHIS; for pest or weed control at 25 g/ha: 0.025 kg/ha; for pest or weed control at 100 g/ha: 0.1 kg/ha; for pest or weed control at 200 g/ha: 0.2 kg/ha
Method in brief: as §4

[7] = system: SORBI (Andropogon sorghum, common sorgum); test: as above; type: in vivo; conditions: Sorghum bicolor, foliar, read-out: Plant damage (herbicidal activity), visually evaluated, SORBI; for pest or weed control at 25 g/ha: 0.025 kg/ha; for pest or weed control at 100 g/ha: 0.1 kg/ha; for pest or weed control at 200 g/ha: 0.2 kg/ha
Method in brief: as §4

[8] = system: ZEAMX (Zea mays L., corn); test: as above; type: in vivo; conditions: Zea mays, foliar, read-out: Plant damage (herbicidal activity), visually evaluated, ZEAMX; for plant injury at 25 g/ha: 0.025 kg/ha; for plant injury at 100 g/ha: 0.1 kg/ha; for plant injury at 200 g/ha: 0.2 kg/ha
Method in brief: as §4

[9] = system: TRZAW (Tritium aestivum L., wheat); test: as above; conditions: in vivo
[10] = system: GLXMA (Glycine max(L.) MERR, soy bean); test: as above; conditions: in vivo
rice (Nampyung rice) = test: Foliage treatment with emulsions, dry rice field conditions, harmful effect on rice (Test Example 2, Table 9); type: in vivo; conditions: 6~6.5-leaf stage, 150 g a.i./ha, emulsion; for Harmful effect, 20 days: 20 days after foliage treatment; for Harmful effect, 30 days: 30 days after foliage treatment
From the text: as §1

Rice = test: Weed control test, 4-leaf stage plants (Test Example 1, Table 8); conditions: in vivo
Description: Seeds of rice, wheat, soy bean, barley, corn, common sorgum, barnyard grass, large crabgrass, creek grass, green foxtail and fall panicum were placed in sandy loam in 600 cm^2 pots and covered with soil. After keeping the pots in a greenhouse at 20 to 30° C. allowing growth of the plants to the 3-leaf stage of the barnyard grass, 2,000 l/ha of an emulsion obtained by diluting with water a mixture of 1 part by weight of a test compound, 5 parts by weight of acetone and 1 part by weight of an emulsifying agent (Tween 80, Junsei) was applied to the surface of the foliage of the plants. The plant damage at 10 days and 20 days after the foliage treatment was visually evaluated from the level of 1 to 100% by comparison with the untreated control: […]

[11] = system: ORYSA (Oryza sativa cv. Dongjin, rice); test: Weed control test, foliage treatment (Test Example 1, Table 7); conditions: in vivo

In the case of `C[C@@H](Oc1ccc(Oc2nc3ccc(Cl)cc3o2)cc1)C(=O)Nc1nc2ccccc2s1` [Example 5, (R)-2-[4-(6-chloro-2-benzoxazolyloxy)phenoxy]propionic acid-N-(2-benzothiazolyl)amide], the “Plant damage (herbicidal activity), visually evaluated, Barnyard grass” value (from here on “Plant damage … Barnyard grass”) (Barnyard grass; 0.025 kg/ha) was 70%, the “Plant damage … Barnyard grass” value (Barnyard grass; 0.05 kg/ha) was 95% and the “Plant damage … Barnyard grass” value (Barnyard grass; 0.1 kg/ha) was 100%. The “Plant damage … Barnyard grass” value (Barnyard grass; 0.4 kg/ha) was 100%, the “Herbicidal effect (0~100), 20 days, Echinochloa oryzicola” value (Echinochloa oryzicola) was 100% and the “Herbicidal effect (0~100), 20 days, Echinochloa crus-galli var. crus-galli” value [1] was 100%. The pest or weed control at 25 g/ha [2] was 95%, the pest or weed control at 100 g/ha [2] was 100% and the pest or weed control at 200 g/ha [2] was 100%. It also gave a pest or weed control at 25 g/ha [3] of 80%, a pest or weed control at 100 g/ha [3] of 100% and a pest or weed control at 200 g/ha [3] of 100%. The pest or weed control at 25 g/ha [4] was 95%, the pest or weed control at 100 g/ha [4] was 100% and the pest or weed control at 200 g/ha [4] was 100%. For the same compound, the pest or weed control at 25 g/ha [5] was 90%, the pest or weed control at 100 g/ha [5] was 100% and the pest or weed control at 200 g/ha [5] was 100%. It also gave a pest or weed control at 25 g/ha [6] of 40%, a pest or weed control at 100 g/ha [6] of 100% and a pest or weed control at 200 g/ha [6] of 100%. The pest or weed control at 25 g/ha [7] was 25%, the pest or weed control at 100 g/ha [7] was 100% and the pest or weed control at 200 g/ha [7] was 100%. The plant injury at 25 g/ha [8] was 60%, the plant injury at 100 g/ha [8] was 100% and the plant injury at 200 g/ha [8] was 100%. The “Plant damage (herbicidal activity), visually evaluated, TRZAW” value (from here on “Plant damage (herbicidal activity) … TRZAW”) [9] was 0%, the “Plant damage (herbicidal activity), visually evaluated, GLXMA” value (“Plant damage (herbicidal activity) … GLXMA” for short) [10] was 0% and the “Harmful effect, 20 days” value (rice (Nampyung rice)) was 0%. The “Harmful effect, 30 days” value (rice (Nampyung rice)) was 0% and the “Plant damage (herbicidal activity), visually evaluated, Rice” value (Rice) was 0%.

In the case of `COc1ccc2nc(NC(=O)[C@@H](C)Oc3ccc(Oc4nc5ccc(Cl)cc5o4)cc3)sc2c1` [Example 13, (R)-2-[4-(6-chloro-2-benzoxazolyloxy)phenoxy]propionic acid-N-(6-methoxy-2-benzothiazolyl)amide], the “Plant damage … Barnyard grass” value (Barnyard grass; 0.025 kg/ha) was 20%, the “Plant damage … Barnyard grass” value (Barnyard grass; 0.05 kg/ha) was 50% and the “Plant damage … Barnyard grass” value (Barnyard grass; 0.1 kg/ha) was 70%. For the same compound, the “Plant damage … Barnyard grass” value (Barnyard grass; 0.4 kg/ha) was 100%, the “Herbicidal effect (0~100), 20 days, Echinochloa oryzicola” value (Echinochloa oryzicola) was 70% and the “Herbicidal effect (0~100), 20 days, Echinochloa crus-galli var. crus-galli” value [1] was 80%. For the same compound, the pest or weed control at 25 g/ha [2] was 70%, the pest or weed control at 100 g/ha [2] was 100% and the pest or weed control at 200 g/ha [2] was 100%. It also gave a pest or weed control at 25 g/ha [3] of 50%, a pest or weed control at 100 g/ha [3] of 100% and a pest or weed control at 200 g/ha [3] of 100%. For the same compound, the pest or weed control at 25 g/ha [4] was 75%, the pest or weed control at 100 g/ha [4] was 100% and the pest or weed control at 200 g/ha [4] was 100%. The pest or weed control at 25 g/ha [5] was 20%, the pest or weed control at 100 g/ha [5] was 100% and the pest or weed control at 200 g/ha [5] was 100%. For the same compound, the pest or weed control at 25 g/ha [6] was 50%, the pest or weed control at 100 g/ha [6] was 100% and the pest or weed control at 200 g/ha [6] was 100%. For the same compound, the pest or weed control at 25 g/ha [7] was 30%, the pest or weed control at 100 g/ha [7] was 100% and the pest or weed control at 200 g/ha [7] was 100%. It also gave a plant injury at 25 g/ha [8] of 40%, a plant injury at 100 g/ha [8] of 100% and a plant injury at 200 g/ha [8] of 100%. For the same compound, the “Plant damage (herbicidal activity) … TRZAW” value [9] was 0%, the “Plant damage (herbicidal activity) … GLXMA” value [10] was 0% and the “Harmful effect, 20 days” value (rice (Nampyung rice)) was 10%. The “Harmful effect, 30 days” value (rice (Nampyung rice)) was 0%.

`COc1ccc2nc(N(C)C(=O)[C@@H](C)Oc3ccc(Oc4nc5ccc(Cl)cc5o4)cc3)sc2c1` [Example 14, (R)-2-[4-(6-chloro-2-benzoxazolyloxy)phenoxy]propionic acid-N-(6-methoxy-2-benzothiazolyl)-N-methyl amide] was tested, and the “Plant damage … Barnyard grass” value (Barnyard grass; 0.025 kg/ha) was 0%, the “Plant damage … Barnyard grass” value (Barnyard grass; 0.05 kg/ha) was 0% and the “Plant damage … Barnyard grass” value (Barnyard grass; 0.1 kg/ha) was 10%. The “Plant damage … Barnyard grass” value (Barnyard grass; 0.4 kg/ha) was 50%, the pest or weed control at 25 g/ha [2] was 0% and the pest or weed control at 100 g/ha [2] was 20%. The pest or weed control at 200 g/ha [2] was 70%, the pest or weed control at 25 g/ha [3] was 0% and the pest or weed control at 100 g/ha [3] was 20%. It also gave a pest or weed control at 200 g/ha [3] of 50%, a pest or weed control at 25 g/ha [4] of 0% and a pest or weed control at 100 g/ha [4] of 20%. It also gave a pest or weed control at 200 g/ha [4] of 70%, a pest or weed control at 25 g/ha [5] of 0% and a pest or weed control at 100 g/ha [5] of 20%. The pest or weed control at 200 g/ha [5] was 70%, the pest or weed control at 25 g/ha [6] was 0% and the pest or weed control at 100 g/ha [6] was 20%. For the same compound, the pest or weed control at 200 g/ha [6] was 50%, the pest or weed control at 25 g/ha [7] was 10% and the pest or weed control at 100 g/ha [7] was 50%. The pest or weed control at 200 g/ha [7] was 90%, the plant injury at 25 g/ha [8] was 0% and the plant injury at 100 g/ha [8] was 10%. For the same compound, the plant injury at 200 g/ha [8] was 90%, the “Plant damage (herbicidal activity) … TRZAW” value [9] was 0% and the “Plant damage (herbicidal activity) … GLXMA” value [10] was 0%. The “Plant damage (herbicidal activity), visually evaluated, ORYSA” value [11] was 0% and the “Plant damage (herbicidal activity), visually evaluated, Rice” value (Rice) was 0%.
